Measured values reported in US12257294B2, “Therapeutics for autoimmune disease: synthetic antigens” (DANMARKS TEKNISKE UNIVERSITET, priority 2018, dated 2025).
Non-standard residues stand in square brackets, D forms with d. No end group written: not given here. Cit = NC(=O)NCCC[C@H](N)C(=O)O; {NH2} = amino modification

Legend:
[1] = Scanning electron microscopy, nanoparticle size; assay type: physicochemical; settings: SEM
Description: Nanosight experiment: Nanosight measurement was done in Jang lab, DTU, using Nano sight equipment NTA Version: NTA 3.1 Build 3.1.46 with Script SOP Standard Measurement 03-47-19PM 20D. The cell of the equipment must be cleaned and unscrewed totally by ethanol and Millipore water. 500 μL diluted sample was injected three times for three run and the concentration of Nanoparticles was adjusted using water pH 6 if the concentration of samples doesn't fit the analysis. The size distribution data and the size with maximum number of particles were recorded, see FIG. 10.
Scanning Electron Microscopy (SEM): The morphology of the Chitosan nanoparticles (NP) was investigated using a Quanta FEG 3D scanning electron microscope (SEM). Samples were attached on metal stubs with double-sided adhesive carbon tape and coated with 6 nm of gold for better conductivity using a sputter coater (Leica Coater ACE 200). The average NP diameter was calculated using image J analysis software (National Institutes of Health, MD, USA) measured at different NP for each image.

[2] = tested on: autoantibodies in plasma of RA patients, SLE and healthy controls; experiment: ELISA testing of PEP2 and PEP2-nanoconjugates; assay type: binding, human; settings: 30 individuals
Description: Prior to ELISA, total amount of protein in each sample was estimated by Bradford method using standard curve of BSA control at known concentration (BioRad). In a maxisorb 96 well plate controls (BSA standard samples at concentrations 2 mg/mL, 1 mg/mL, 0.5 mg/mL and 0.1 mg/mL) and plasma sample were mixed with a Bradford reagent following manufacturer's protocol (BioRad). Plasma samples were used in dilution 1:100. Resulting absorbances at 595 nm were measured on Magellan Tecan microplate reader. Total amount of protein was calculated using standard curve.
ELISA: Maxisorb 96 well plates (NUNC Thermofisher) were coated with nanoparticle antigens/controls at concentration 8 μg/mL in 1×PBS overnight (room temperature; 100 μl/well). After washing with 1×PT (2×300 μl/well, PT: 50 μl Tween-20 in 1 L 1×PBS), the plates were blocked with 1×PTB (1 h, 37° C.; 100 μl/well, PTB: 20 g BSA, 50 μl Tween-20 in 1 L 1×PBS). Incubation with plasma at desired dilution was performed at room temperature for 1.5 h using diluent: 2 g BSA, 50 μl Tween-20 in 1 L 1×PBS (100 μl/well). This was followed by washing (2×300 μl 1×PBS) and incubation with HPR-labelled secondary antibody for 1.5 h at room temperature using same diluent and dilution of the secondary antibody provided by supplier (HPR-conjugated a-aIgG; Sigma). Subsequent washing (2×300 μl PT) and incubation with freshly prepared TMB-H2O2 solution (Sigma; 100 μl/well) was followed by adding a stop solution (1M H2SO4; 50 μl/well) and reading resulting absorbance values at 450 nm on Magellan Tecan microplate reader. Linear range for each antigen was determined via testing series of control dilutions (SLE and healthy controls in dilutions 1:50 to 1:2000). According to the results plasma dilutions 1:100-1:500 were within linear range of the assay for each antigen (R2>0.95).

NZB/W mice = experiment: In vivo mice assay, disease activity index (DAI); settings: control treatment, same regimen
Description: For the further in vivo test, a well-described mice model was selected: NZB/W mice, these have been used as a model for autoimmune disease since the early 1960s. Mice of this hybrid cross develop an autoimmune disease resembling human SLE. Nine-week-old NZB/W mice were kindly provided by […] group, Statens Serum Institute, Denmark; they were grown and tested for the presence of anti-dsDNA antibodies as described in example 6. […] Two mice were used for each conjugate. Mice received IV conjugate/control administration (same amount each time), with 12 h intervals for 5 days, and afterwards giving the same dose with 3 day interval over 3 weeks. […] Administration regimen for same as for nanoconjugate complexes: IV in tail vein with 12 h interval for 5 days, and afterwards giving the same dose with 3 day interval. Blood samples were withdrawn at time points: 24 h, 48 h, 1 week, 4 weeks after the beginning of each treatment. Plasma was centrifuged using Qiagen blood storage tubes and stored at -20° C. prior to analyses. ELISA analysis was performed using manufacturer's protocols in sera dilution 1:100 to 1:500. […] At early time points 10 nM conjugate works better than 1 nM.

[3] = tested on: ACPA in RA sera (vs healthy controls and SLE); experiment: ELISA screening of citrullinated peptide library; assay type: binding, human
Description: Citrullinated peptide antigens PEP1-PEP25 (SEQ ID No 9-33) (free amine and carboxy-termini) have been purchased from CALSO, Copenhagen, Denmark, and screened in ELISA of a cohort of 30 RA patients, 30 matched healthy controls and 30 patients with systemic lupus erythematosus. Overall, 16 peptide antigens […], from all the three groups, recognised RA sera.

purified SLE-antibodies = experiment: ELISA selectivity of antigens D7 and D8 for purified SLE antibodies; assay type: binding; settings: vs control samples comprising other antibodies
Description: SLE antibodies from sera were captured by affinity chromatography using NHS-sepharose and modified antigens as specified in table 9. […] Sera was pre-treated with CaCl2)/dextran to remove lipoproteins prior to applying to column. Sera sample was added to column; incubated for 4 min; washed at 0.5 ml/min flow rate with 20 mM PBS, 5 column volumes; and finally SLE antibodies were eluted with 3 column volumes of 100 mM glycine-HCl, 10% dioxane pH 2.5-3.
Standard ELISA was used to test the selectivity of D7 and D8. ELISA plates comprising antigens D7 and D8, respectively, were tested for their ability to specifically bind the purified SLE-antibodies compared to control samples comprising other antibodies.

NZB/W F1 mice = experiment: SLE mice study, SLEDAI; assay type: in vivo; settings: 2 weeks of treatment and 2 weeks after
Description: […]1 in 1×PBS was administered by IV in the tail vain every 12 h over 2 weeks, at a conjugate dosage of 160 μg/kg animal weight for 10 nM concentration. 30 mice were tested; 80% were female; average age 20 week; average weight/median 20.2 g (18.4 g-23.1 g). […] (HQ) was used as control, PO, 2 mg/kg, every 24 h over 2 weeks.

Molecule | Average nanoparticle size [1] | Positive individuals, %: Disease control SLE [2] | Positive individuals, %: Healthy [2] | Positive individuals, %: Patients with RA [2] | Positive individuals, n: Disease control SLE [2] | Positive individuals, n: Healthy [2] | Positive individuals, n: Patients with RA [2] | also measured
NP1: Chitosan/Hyaluronic acid/PEG/PEP2 nanoconjugate, presumably covalent attachment of peptide via PEG to CS/HA (HHPGIAEFPS[Cit]GKSYSYSKQF; ends and bridges not checked; also: presumably covalently attached via PEG to chitosan/hyaluronic acid nanoconjugate) | 100-300 nm | (7) % | (3) % | (57) % | 2 | 1 | 17 | 
Gentamicin [reference compound] |  |  |  |  |  |  |  | Effect on DAI (NZB/W mice): only a short term drop in DAI
HHP GIA EFP S(Cit)G KSY SYS KQF (HHPGIAEFPS[Cit]GKSYSYSKQF) [PEP2] |  | (7) % | (0) % | (57) % | 2 | 0 | 17 | Binding in RA samples (share of patients) ([3]; 30 RA patients): 57%; Binding in healthy controls (share) ([3]; 30 matched healthy controls): 0%; Binding in SLE (share of patients) ([3]; 30 patients with systemic lupus erythematosus): 7%
NH2-(TCCT)6:(AGGA)6 (TCCTTCCTTCCTTCCTTCCTTCCT; DNA, 5' {NH2}, backbone and methylation of C not given here; further chemistry not fully specified) [Conjugate D8, Pre-annealed amino-modified duplex antigen] |  |  |  |  |  |  |  | Selectivity for SLE antibodies (purified SLE-antibodies): selective for SLE antibodies
NP2: Chitosan/Hyaluronic acid/PEG/PEP2 nanoconjugate, presumably non-covalent attachment of peptide to CS/HA (HHPGIAEFPS[Cit]GKSYSYSKQF; ends and bridges not checked; also: presumably non-covalently loaded in chitosan/hyaluronic acid/PEG nanoconjugate) | 520 nm | (7) % | (7) % | (53) % | 2 | 2 | 16 | 
Oc1ccc(O)cc1 [HQ, Hydroquinone] |  |  |  |  |  |  |  | SLEDAI (SLE disease activity index), course (NZB/W F1 mice): reduces SLEDAI faster; however the disease flares after day 17 in treatment
